The text below walks through data of US4513001A, “β-Adrenergic 1-[1-benzimidazolyl]-N-[2-(4-hydroxy-3-methoxy-phenyl)-2-hydroxy-ethyl]- 3-amino butane and salts and hydrates thereof” (priority 1982, dated 1985).

Data set [1] concerns uterine horn. In words: Uterus relaxing activity in vivo (ocytocine-induced contractions). Conditions: rat, i.v.; compound A 16.8 μg/kg vs salbutamol 24.9 μg/kg. The protocol:
The test was carried out also in the rat.
The aminal was anesthesied by ethyl carbamate.
The contractions caused in an exposed uterine horn immersed in a nutrient bath were recorded (bath: RINGER-LOCKE modified by GADDUM and VOGT). These contractions were induced by the intravenous injection of ocytocine, at the dose of 0.1 IU per kg.
After a control recording of the effects of the latter, the compound A or the Salbutamol were administered intravenously and the further ocytocine injection was carried out; its effect was compared with that of the control reaction.

Data set [2] deals with heart rate. In words: β-stimulant specificity: heart rate of the anesthetised dog, antagonism of compound A tachycardia by acebutolol. Type of data set: in vivo. From the text: The results below are the averages of the values obtained in 3 dogs.
A short description of data set [3]: Acute toxicity in the mouse, intravenous. Particulars: in vivo. From the text:
These two compounds were the subject of an acute toxicity study in the mouse.
The two compounds had similar toxicity and the pharmacological study was able, indifferently, to be carried out with one or the other, the results being, in the two cases, expressed by weight of base per kg of body weight for the in vivo tests and in molar concentration for the in vitro tests.

Data set [4] deals with heart rate. In words: Heart rate of the un-anesthetised dog, oral. Type of data set: in vivo, Beagle dog.
Setting [5] is: T0 + 1 min, perfusion compound A 4.2 μg/kg/min, T0: 157.
The mark [6] stands for this setting: T1 + 4 h 1 min, second perfusion compound A after acebutolol.
Where [7] appears, read: T1 + 4 h 2 min, second perfusion compound A after acebutolol.
[8] abbreviates: T1 + 4 h 4 min, second perfusion compound A after acebutolol.
Setting [9] is: T1 + 4 h 6 min, second perfusion compound A after acebutolol.

Read-outs that look alike come from different tables or passages of the source.

For `COc1cc(C(O)CNC(C)CCn2cnc3ccccc32)ccc1O` (stereo not drawn) [Compound A, 1-[1-benzimidazolyl]-N-[2-(4-hydroxy-3-methoxy-phenyl)2-hydroxy-ethyl]3-amino butane basic sulphate, dihydrate], the “Inhibiting activity on ocytocine-induced uterine contractions (comparison with Salbutamol)” value in data set [1] is recorded as “inhibiting activity comparable with that of salbutamol”. Moreover, the Heart rate worked out at 180 beats/min in data set [2] (setting [5]); 197 beats/min in data set [2] (T0 + 2 min, perfusion compound A, T0: 157); 202 beats/min in data set [2] (T0 + 4 min, perfusion compound A, T0: 157); 205 beats/min in data set [2] (T0 + 6 min = T1, perfusion compound A, T0: 157); 146 beats/min in data set [2] (setting [6]); 155 beats/min in data set [2] (setting [7]). In addition, the Heart rate in data set [2] (setting [8]) and in data set [2] (setting [9]) was 160 beats/min throughout. In addition, the Heart rate variation result in data set [2] (setting [5]) is recorded as “+23”; in data set [2] (T0 + 2 min, perfusion compound A), “+40”; in data set [2] (T0 + 4 min, perfusion compound A), “+45”; in data set [2] (T0 + 6 min = T1, perfusion compound A), “+48”; in data set [2] (setting [6]), -11; in data set [2] (setting [7]), -2. Moreover, the Heart rate variation entry in data set [2] (setting [8]) and in data set [2] (setting [9]) was “+3” in each case. For the same molecule, the LD50 in data set [3] (as base, confidence limits printed, read-out: LD50 expressed as base) amounted to 96 mg/kg; in data set [3] (by weight of product, confidence limits p=0.05 printed, read-out: LD50), 114 mg/kg.

In the case of `CC(C)(C)NCC(O)c1ccc(O)c(CO)c1` (stereo not drawn) [Salbutamol, reference compound], the “Heart rate, average” value in data set [4] (25 μg base/kg, 15 min, time 0: 92, 12 dogs) came to 142; in data set [4] (25 μg base/kg, 30 min, time 0: 92), 165; in data set [4] (25 μg base/kg, 1 h, time 0: 92) it was 170; in data set [4] (25 μg base/kg, 2 h, time 0: 92), 156; in data set [4] (25 μg base/kg, 3 h, time 0: 92), 137; in data set [4] (25 μg base/kg, 4 h, time 0: 92), 130. The “Heart rate, average” value is 120 in data set [4] (25 μg base/kg, 5 h, time 0: 92); 163 in data set [4] (83 μg base/kg, 15 min, time 0: 90, 12 dogs); 194 in data set [4] (83 μg base/kg, 30 min, time 0: 90); 197 in data set [4] (83 μg base/kg, 1 h, time 0: 90); 195 in data set [4] (83 μg base/kg, 2 h, time 0: 90); 172 in data set [4] (83 μg base/kg, 3 h, time 0: 90). The “Heart rate, average” value turned out to be 150 in data set [4] (83 μg base/kg, 4 h, time 0: 90); 148 in data set [4] (83 μg base/kg, 5 h, time 0: 90); 141 in data set [4] (83 μg base/kg, 6 h, time 0: 90); 138 in data set [4] (83 μg base/kg, 7 h, time 0: 90). Besides, in data set [4] (un-anesthetised dog, in words), the “Tachycardiac activity (comparison with Salbutamol)” value is “more active than compound B: the effect of the low dose of Salbutamol is equal to that of the high dose of compound B”.
